From patent publication US20250188102A1, “TRIAZINE COMPOUND, INTERMEDIATE THEREOF, PREPARATION METHOD THEREFOR AND USE THEREOF” (priority 2022, published 2025)
Like-named read-outs stand apart in the source and are kept apart here.

What was measured:
in vivo = settings: male, Sprague-Dawley, rat; for AUC(0-inf): AUC0-∞; for half-life: T1/2
in vitro [1] = assay type: cell-based; settings: human
Experimental: (§1) Nine cell lines originated from different human tissues (Table 2) are selected to evaluate the cytotoxicity of the tested compounds. Sorafenib or Taxol are used as cytotoxic control compounds. The cells and compounds are added to the 96-well test plate. Cells are cultured in culture medium containing 10% FBS, 5% CO2 and 37° C. for 3 days, and then cell viability was detected by CellTiter-Glo reagent. The raw data are used for compound cytotoxicity calculations. The dose-response curves of the compounds are analyzed by GraphPad Prism software and CC50 values are calculated. The compound will be tested at 8 concentration points, 3-fold series dilution, and 3-compound pores.

SARS-CoV-2 strain = assay: microbe, parasite or virus in culture; settings: Severe acute respiratory syndrome coronavirus 2, read-out: EC50 of SARS-CoV-2 strain
in vitro [2] = assay type: cell-based; settings: human; remark: listed apart in the source
Experimental: as §1

in vitro [3] = assay type: cell-based; settings: human; remark: listed apart in the source
Experimental: as §1

in vitro [4] = assay type: cell-based; settings: human; remark: listed apart in the source
Experimental: as §1

in vitro [5] = assay type: cell-based; settings: human; remark: listed apart in the source
Experimental: as §1

in vitro [6] = assay type: cell-based; settings: human; remark: listed apart in the source
Experimental: as §1

in vitro [7] = assay type: cell-based; settings: human; remark: listed apart in the source
Experimental: as §1

in vitro [8] = assay type: cell-based; settings: human; remark: listed apart in the source
Experimental: as §1

in vitro [9] = assay type: cell-based; settings: human; remark: listed apart in the source
Experimental: as §1

in vitro [10] = settings: human
in vitro [11] = assay type: in vitro ADME, people; settings: human, hepatocytes
NL63 Mpro protease = NL63 Mpro protease (Human coronavirus NL63 (HCoV-NL63), UniProt P0C6X5); assay: Mpro enzymatic assay, other human coronaviruses: NL63; assay type: biochemical; settings: read-out: Enzymatic Determination of IC50 of compound by Mpro, NL63
HKU1 Mpro protease = HKU1 Mpro protease (Human coronavirus HKU1 (isolate N1) (HCoV-HKU1), UniProt P0C6X2); assay type: biochemical; settings: read-out: Enzymatic Determination of IC50 of compound by Mpro, HKU1
[12] = liver microsomes; rat
in vitro [13] = settings: rat, microsomes
in vitro [14] = assay type: in vitro ADME; settings: rat, hepatocytes
SARS-CoV-2 = settings: read-out: viral inhibitory activity EC50, cited from earlier work
MERS Mpro protease = MERS Mpro protease (Middle East respiratory syndrome-related coronavirus (isolate United Kingdom/H123990006/2012) (MERS-CoV) (Betacoronavirus England 1), UniProt K9N7C7); assay: biochemical
[15] = Colo-205, 3 days, read-out: CC50
[16] = CCRF-CEM, 3 days, read-out: CC50
[17] = rat, stated before the oral figures (intravenous per Table 11)

Sequence of NL63 Mpro protease (P0C6X5 2940-3242 limits assumed): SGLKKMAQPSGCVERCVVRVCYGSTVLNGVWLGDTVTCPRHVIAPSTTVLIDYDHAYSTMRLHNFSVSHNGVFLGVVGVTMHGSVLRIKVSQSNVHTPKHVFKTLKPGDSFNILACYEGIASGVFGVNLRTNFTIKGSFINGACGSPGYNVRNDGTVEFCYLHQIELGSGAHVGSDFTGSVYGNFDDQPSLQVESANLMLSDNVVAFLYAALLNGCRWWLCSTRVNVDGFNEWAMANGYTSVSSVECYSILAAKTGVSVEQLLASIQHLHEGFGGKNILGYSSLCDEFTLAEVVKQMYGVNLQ
Sequence of MERS Mpro protease (K9N7C7 3248-3553 limits assumed): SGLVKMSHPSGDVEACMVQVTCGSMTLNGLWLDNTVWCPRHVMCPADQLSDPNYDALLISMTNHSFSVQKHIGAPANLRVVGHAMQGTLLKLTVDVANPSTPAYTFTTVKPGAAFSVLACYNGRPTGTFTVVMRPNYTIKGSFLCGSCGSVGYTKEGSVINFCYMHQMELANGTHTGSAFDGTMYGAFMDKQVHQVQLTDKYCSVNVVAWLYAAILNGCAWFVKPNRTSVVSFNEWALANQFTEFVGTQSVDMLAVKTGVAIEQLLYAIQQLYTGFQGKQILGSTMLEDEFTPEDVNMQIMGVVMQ
Sequence of HKU1 Mpro protease (P0C6X2 3335-3637 limits assumed): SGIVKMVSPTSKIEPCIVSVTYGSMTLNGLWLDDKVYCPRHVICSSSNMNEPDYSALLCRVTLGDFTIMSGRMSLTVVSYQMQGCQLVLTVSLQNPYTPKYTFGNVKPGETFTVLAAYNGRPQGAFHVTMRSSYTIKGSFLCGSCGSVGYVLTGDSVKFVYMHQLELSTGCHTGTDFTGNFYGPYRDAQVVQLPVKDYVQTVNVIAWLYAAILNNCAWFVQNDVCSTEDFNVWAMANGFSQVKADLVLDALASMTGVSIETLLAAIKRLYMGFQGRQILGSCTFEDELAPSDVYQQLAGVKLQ

Molecule O=C(O)/C=C/C(=O)O.[2H]C([2H])([2H])n1cnc(Cn2c(=O)[nH]/c(=N\c3cc4cn(C)nc4cc3Cl)n(Cc3cc(F)c(F)cc3F)c2=O)n1 [SHEN211] has an AUC(0-inf) (in vivo; po, 5 mg/kg, SD rat) of 45500 ng·h/mL, a Cmax (in vivo; po, 5 mg/kg, SD rat) of 4710 ng/mL and a half-life (in vivo; po, 5 mg/kg) of 3.22 h. It also gave a Tmax (in vivo; po, 5 mg/kg, SD rat) of 2 h, a CC50 (in vitro [1]; HEp2, 3 days, read-out: CC50) greater than 100 µM and an EC50 (SARS-CoV-2 strain) of 0.084 to 0.21 µM. The CC50 (in vitro [2]; MRC-5, 3 days, read-out: CC50) was greater than 100 µM, the CC50 (in vitro [3]; [15]) was greater than 100 µM and the CC50 (in vitro [4]; Molt-4, 3 days, read-out: CC50) was greater than 100 µM. The CC50 (in vitro [5]; [16]) was greater than 100 µM, the CC50 (in vitro [6]; HEK293, 3 days, read-out: CC50) was greater than 100 µM and the CC50 (in vitro [7]; HIHeLa, 3 days, read-out: CC50) was greater than 100 µM. For the same molecule, the “mitochondrial toxicity to human HepG2 cells” value (HepG2 cells) was “more than 200 μM”, the “difference between the CC50 and EC50” value (HepG2 cells; human) was “more than 476 times” and the CC50 (in vitro [8]; A375, 3 days, read-out: CC50) was greater than 100 µM. It also gave a CC50 (in vitro [9]; HepG2, 3 days, read-out: CC50) greater than 100 µM, a CC50 (Huh7 cells) greater than 1 microns and a CC50 (in vitro [10]; galactose culture HepG2 CC50) of 206 µM. It also gave a CC50 (in vitro [10]; glucose culture HepG2 CC50) of 202 µM.

For [2H]C([2H])([2H])n1cc2cc(Nc3nc(=O)n(Cc4ncn(C)n4)c(=O)n3Cc3cc(F)c(F)cc3F)c(Cl)cc2n1 [Compound I-5], the half-life at 0.5 μM (in vitro [11]) was 29.9 h.

In the case of C=C(C)[C@H]1Cc2c(ccc3c2O[C@@H]2COc4cc(OC)c(OC)cc4[C@@H]2C3=O)O1 [Rotenone, reference compound], the “ratio (CC50 Glu/CC50 Gal)” value (HepG2 cells; human) is reported as 91.7, the CC50 (in vitro [10]; galactose culture HepG2 CC50) is reported as 0.03 µM and the CC50 (in vitro [10]; glucose culture HepG2 CC50) is reported as 2.33 µM.

With CC(C)C[C@H](NC(=O)OCc1ccccc1)C(=O)N[C@@H](CC1CCNC1=O)C(O)S(=O)(=O)O (some centres unmarked) [GC-376] the IC50 (NL63 Mpro protease) was 0.107 µM and the IC50 (HKU1 Mpro protease) was 0.022 µM.

For [2H]C([2H])([2H])n1cnc(Cn2c(=O)n(COC(=O)OC(C)C)/c(=N\c3cc4cn(C)nc4cc3Cl)n(Cc3cc(F)c(F)cc3F)c2=O)n1 [Compound I-19], the AUC(0-inf) (in vivo; po, 5 mg/kg, SD rat) was 70900 ng·h/mL, the Cmax (in vivo; po, 5 mg/kg, SD rat) was 6180 ng/mL and the half-life (in vivo; po, 5 mg/kg) was 2.91 h. The Tmax (in vivo; po, 5 mg/kg, SD rat) was 3.33 h.

For [2H]C([2H])([2H])n1cnc(Cn2c(=O)nc(Nc3cc4cn(C([2H])([2H])[2H])nc4cc3Cl)n(Cc3cc(F)c(F)cc3F)c2=O)n1 [Compound I-24], the AUC(0-inf) (in vivo; po, 5 mg/kg, SD rat) was 58300 ng·h/mL, the Cmax (in vivo; po, 5 mg/kg, SD rat) was 5210 ng/mL and the half-life (in vivo; po, 5 mg/kg) was 3.51 h. The Tmax (in vivo; po, 5 mg/kg, SD rat) was 4 h.

With C[C@]12CC[C@H]3[C@@H](CCC4=CC(=O)CC[C@@]43C)[C@@H]1CC[C@@H]2O [Testosterone] the Cl [12] was 3.28 L/h/kg, the Cla [12] was 6112.8 µL/min/mg and the Clape [12] was 660.186 L/h/kg. For the same molecule, the half-life (in vitro [13]) was 36 s.

In the case of [2H]C([2H])(c1ncn(C)n1)n1c(=O)nc(Nc2cc3cn(C)nc3cc2Cl)n(Cc2cc(F)c(F)cc2F)c1=O [Compound I-3], the half-life at 0.5 μM (in vitro [14]) is reported as 8.28 h and the half-life at 0.5 μM (in vitro [11]) is reported as 204 h.

Molecule CNC(=O)c1cc(Oc2ccc(NC(=O)Nc3ccc(Cl)c(C(F)(F)F)c3)cc2)ccn1 [Sorafenib] has a CC50 (in vitro [2]; MRC-5, 3 days, read-out: CC50) of 13.8 µM, a CC50 (in vitro [3]; [15]) of 8.72 µM and a CC50 (in vitro [6]; HEK293, 3 days, read-out: CC50) of 5.58 µM. It also gave a CC50 (in vitro [9]; HepG2, 3 days, read-out: CC50) of 5.32 µM.

In the case of CCC(CC)COC(=O)[C@H](C)N[P@](=O)(OC[C@H]1O[C@@](C#N)(c2ccc3c(N)ncnn23)[C@H](O)[C@@H]1O)Oc1ccccc1 [Remdesivir], the CC50 (Huh7 cells) is reported as greater than 1 microns.

With O=c1nc(NO)ccn1[C@@H]1O[C@H](CO)[C@@H](O)[C@H]1O [EIDD-1931] the CC50 (Huh7 cells) was greater than 10 microns.

Molecule CC(=O)O[C@H]1C(=O)[C@@]2(C)[C@H]([C@H](OC(=O)c3ccccc3)[C@]3(O)C[C@H](OC(=O)[C@H](O)[C@@H](NC(=O)c4ccccc4)c4ccccc4)C(C)=C1C3(C)C)[C@]1(OC(C)=O)CO[C@@H]1C[C@@H]2O [Pacitaxel] has a CC50 (in vitro [1]; HEp2, 3 days, read-out: CC50) of 0.03 µM, a CC50 (in vitro [4]; Molt-4, 3 days, read-out: CC50) of 0.0027 µM and a CC50 (in vitro [5]; [16]) of 0.0034 µM. It also gave a CC50 (in vitro [7]; HIHeLa, 3 days, read-out: CC50) of 0.02 µM and a CC50 (in vitro [8]; A375, 3 days, read-out: CC50) of 0.0089 µM.

In the case of CC(C)(C)[C@H](NC(=O)C(F)(F)F)C(=O)N1C[C@H]2[C@@H]([C@H]1C(=O)N[C@H](C#N)C[C@@H]1CCNC1=O)C2(C)C [PF-07321332], the EC50 (SARS-CoV-2; A549 cells expressing ACE2 protein) is listed as 0.056 µM, the EC50 (SARS-CoV-2; HeLa cells expressing ACE2 protein) is listed as 0.099 µM and the EC50 (SARS-CoV-2; human airway epithelial cells) is listed as 0.062 µM.

With [2H]C([2H])([2H])n1cnc(Cn2c(=O)[nH]/c(=N\c3cc4cn(C)nc4cc3Cl)n(Cc3cc(F)c(F)cc3F)c2=O)n1 [SHEN212] the “AUC0-∞” value (SD rat, PO, 5.0 mg/kg) was 62126.14 ng·h/mL, the Tmax (SD rat, PO, 5.0 mg/kg) was 3.67 h and the “AUC compared with S-217 fumaric acid eutectic group” value (rat, PO) was 115%. The “AUC compared with S-217622 fumaric acid coproduct combined with niacinamide group” value (rat, PO) was 124%, the “Cmax compared with S-217 fumaric acid eutectic group” value (rat, PO) was 132% and the “Cmax compared with S-217622 fumaric acid coproduct combined with niacinamide group” value (rat, PO) was 123%. The “T1/2 compared with S-217622 fumaric acid coproduct combined with niacinamide group” value (rat, PO) was 121%.

In the case of [2H]C([2H])([2H])n1cnc(Cn2c(=O)[nH]/c(=N\c3cc4cn(C)nc4cc3Cl)n(Cc3cc(F)c(F)cc3F)c2=O)n1 [Compound I-2], the half-life at 0.5 μM (in vitro [14]) is reported as 89 h, the AUC(0-inf) (in vivo; iv, 0.5 mg/kg, SD rat) is reported as 7940 ng·h/mL and the Cmax (in vivo; iv, 0.5 mg/kg, SD rat) is reported as 2880 ng/mL. It also gave a half-life (in vivo; iv, 0.5 mg/kg) of 3.36 h, a Tmax (in vivo; iv, 0.5 mg/kg, SD rat) of 0.03 h and an AUC(0-inf) (in vivo; po, 5 mg/kg, SD rat) of 65300 ng·h/mL. For the same molecule, the Cmax (in vivo; po, 5 mg/kg, SD rat) was 6020 ng/mL, the half-life (in vivo; po, 5 mg/kg) was 3.04 h and the Tmax (in vivo; po, 5 mg/kg, SD rat) was 2.33 h. The “AUC compared with S-217622” value (rat, after oral administration) was 144%, the “Cmax compared with S-217622” value (rat, after oral administration) was 145% and the “AUC compared with S-217622” value [17] was 198%. For the same molecule, the “Cmax compared with S-217622” value [17] was 125% and the “T1/2 compared with S-217622” value [17] was 124%.

Cn1cnc(Cn2c(=O)[nH]/c(=N\c3cc4nn(C)cc4cc3Cl)n(Cc3cc(F)c(F)cc3F)c2=O)n1 [CVL201] showed an AUC(0-inf) (in vivo; po, 5 mg/kg) of 53900 ng·h/mL, a Cmax (in vivo; po, 5 mg/kg) of 4520 ng/mL and a half-life (in vivo; po, 5 mg/kg) of 2.89 h. It also gave a Tmax (in vivo; po, 5 mg/kg) of 4.67 h, a CC50 (in vitro [1]) greater than 100 µM and a CC50 (in vitro [2]) greater than 100 µM. It also gave a CC50 (in vitro [3]) greater than 100 µM, a CC50 (in vitro [4]) greater than 100 µM and a CC50 (in vitro [5]) greater than 100 µM. For the same molecule, the CC50 (in vitro [6]) was greater than 100 µM, the CC50 (in vitro [7]) was greater than 100 µM and the IC50 (MERS Mpro protease) was 4960 µM. The CC50 (in vitro [8]) was greater than 100 µM, the CC50 (in vitro [9]) was greater than 100 µM and the CC50 (Huh7 cells) was greater than 1 microns.
